Measured values taken from patent US8031338B2, “Measuring Forster resonance energy transfer with polarized and depolarized light” (Vanderbilt University, priority 2004, dated 2011).

How the values were obtained:
[1] = system: COS-7 cells expressing SCAT3.1 (caspase-3 cleavage site); conditions: COS-7 cells expressing SCAT3.1, 96-well plate; 10 μM H2O2 for 90 min; FIG. 6D
[2] = system: COS-7 cells expressing SCAT3.1 (caspase-3 cleavage site); assay: A-FRET microscopy of SCAT 3.1 apoptosis sensor cleavage in live cells; assay type: cell-based; conditions: COS-7 cells transfected with SCAT 3.1; imaged immediately after treatment and after 5 hours; FIG. 6A-C
Description: Sample Preparation. Beads from a 5 ml HiTRAP chelating HP column (Amersham Biosciences) were charged using a 0.1M NiSO (Rizzo and Piston, 2005) solution and washed with 50 mM TrisHCl. The beads were then labeled as described (Youvan et al., 1997) with purified mCerulean, mVenus, or a linker protein containing mVenus and mCerulean separated by the linker sequence […]. Histadine-tagged recombinant protein was bacterially expressed and purified as previously described (Rizzo et al., 2004). For living cell studies, plasmid DNA encoding FP constructs were introduced was into COS-7 cells using FUGENE (Roche) transfection reagent according to the manufacturer's instructions. […]
Fluorescence Imaging. […] Fluorescence emission was filtered through a 515-540 nm bandpass filter and 2 mm BGG22 glass prior to separation vertical and horizontal polarizations with a broadband polarizing cube beam splitter (Newport). […]
To test the ability of this approach to measure FRET changes in a live cell based assay, COS-7 cells were transfected with the apoptosis sensor, SCAT 3.1 (Nagai and Miyawaki, 2004), which consists of cyan and yellow FPs separated by a caspase-3 cleavage site (FIG. 6A). […] SCAT 3.1 cleavage was also monitored in cells grown on a 96-well plate. […] The use of an intrinsic parameter, such as anisotropy, enables absolute threshold values to be determined for occurrence of FRET during an assay. […]

`OO` [hydrogen peroxide] was tested, and the “overall anisotropy in the yellow emission channel, indicating caspase-3 activation” value [1] was “increase in the overall anisotropy”.

`CN[C@@H]1C[C@H]2O[C@@](C)([C@@H]1OC)n1c3ccccc3c3c4c(c5c6ccccc6n2c5c31)C(=O)NC4` [staurosporine] was tested, and the “emission in the yellow FP channel (polarization) following induction of apoptosis” value [2] was “changes from highly depolarized fluorescence to highly polarized fluorescence”.
